In EPA's ToxRefDB 2:

Key:
rat [1] = conditions: Prenatal developmental toxicity study, sprague dawley, Oral, Gavage/Intubation, dose end: 15 GD
rat [2] = conditions: Subchronic oral toxicity in rodents, sprague dawley, Feed, dose end: 90 day, group: systemic
dog [3] = conditions: Chronic toxicity, beagle, Oral, Gavage/Intubation, dose end: 12 month, group: systemic
mouse [4] = conditions: Subchronic oral toxicity in rodents, cd1, Feed, dose end: 90 day, group: systemic, systemic / in life observation / body weight / body weight gain + systemic / in life observation / food consumption / food consumption + …
rabbit = conditions: Prenatal developmental toxicity study, new zealand white, Oral, Gavage/Intubation, dose end: 19 GD
rat [5] = conditions: Multigenerational reproductive toxicity study, sprague dawley, Oral, Feed, dose end: 2 generation
mouse [6] = conditions: Carcinogenicity, cd1, Oral, Feed, dose end: 80 week, group: systemic
dog [7] = conditions: Subchronic oral toxicity in nonrodent, beagle, Gavage/Intubation, dose end: 90 day, group: systemic, systemic / in life observation / clinical signs / defecation (diarrhea) + systemic / in life observation / clinical signs / motor activity…
rat [8] = conditions: Combined chronic toxicity/carcinogenicity, sprague dawley, Oral, Feed, dose end: 104 week, group: systemic
[9] = group: developmental, systemic / in life observation / body weight / fetal weight + systemic / in life observation / body weight / litter weight
[10] = group: maternal, systemic / in life observation / body weight / body weight + systemic / in life observation / body weight / body weight gain + systemic / in…
[11] = systemic / in life observation / body weight / body weight + systemic / in life observation / body weight / body weight gain + systemic / in…
[12] = systemic / in life observation / body weight / body weight gain + systemic / organ weight / liver / relative to body weight
[13] = systemic / hematology / blood clotting / blood clotting - thromboplastin time + systemic / in life observation / body weight / body weight …
[14] = group: developmental, developmental / developmental malformation / bone / full supernumerary + developmental / developmental malformation / bone / incomplete …
[15] = group: offspring, systemic / in life observation / body weight / offspring (pup) weight + systemic / in life observation / body weight / offspring (pup) …
[16] = group: parental, systemic / in life observation / body weight / body weight
[17] = systemic / pathology gross / urinary bladder / distended
[18] = systemic / pathology gross / urinary bladder / distended + systemic / hematology / lymphocyte / lymphocyte + systemic / hematology / …
[19] = systemic / pathology microscopic / thyroid gland / adenoma + systemic / clinical chemistry / cholesterol / cholesterol + systemic / clinical…

Compound Cc1cc(C)nc(Nc2ccccc2)n1 [Pyrimethanil] has an LEL (rat [1]; [9]) of 1000 mg/kg/day, an LOAEL (rat [1]; [9]) of 1000 mg/kg/day and an NEL (rat [1]; [9]) of 85 mg/kg/day. It also gave an NOAEL (rat [1]; [9]) of 85 mg/kg/day, an LOAEL (rat [1]; group: maternal, systemic / in life observation / body weight / body weight + systemic / in life observation / body weight / body weight gain) of 1000 mg/kg/day and an LEL (rat [1]; [10]) of 1000 mg/kg/day. It also gave an NEL (rat [1]; [10]) of 85 mg/kg/day, an NOAEL (rat [1]; [10]) of 85 mg/kg/day and an LOAEL (rat [2]; [11]) of 529 mg/kg/day. The NOAEL (rat [2]; [11]) was 54.5 mg/kg/day, the LEL (rat [2]; [12]) was 6.8 mg/kg/day and the NEL (rat [2]; [12]) was < 6.8 mg/kg/day. It also gave an NEL (dog [3]; systemic / hematology / blood clotting / blood clotting - thromboplastin time + systemic / hematology / neutrophils / neutrophils + systemic…) of 2 mg/kg/day, an LOAEL (dog [3]; [13]) of 250 mg/kg/day and an NOAEL (dog [3]; [13]) of 30 mg/kg/day. It also gave an LEL (dog [3]; systemic / in life observation / clinical signs / vomitting) of 30 mg/kg/day, an LEL (mouse [4]) of 1860 mg/kg/day and an LOAEL (mouse [4]) of 1860 mg/kg/day. The NEL (mouse [4]) was 139 mg/kg/day, the NOAEL (mouse [4]) was 139 mg/kg/day and the LEL (rabbit; [14]) was 300 mg/kg/day. It also gave an LOAEL (rabbit; [14]) of 300 mg/kg/day, an NEL (rabbit; [14]) of 45 mg/kg/day and an NOAEL (rabbit; [14]) of 45 mg/kg/day. The LOAEL (rabbit; [10]) was 300 mg/kg/day, the NEL (rabbit; [10]) was 7 mg/kg/day and the NOAEL (rabbit; [10]) was 45 mg/kg/day. The LEL (rabbit; group: maternal, systemic / in life observation / clinical signs / defecation) was 45 mg/kg/day, the LOAEL (rat [5]; group: offspring, systemic / in life observation / body weight / offspring (pup) weight) was 294 mg/kg/day and the LEL (rat [5]; [15]) was 294 mg/kg/day. For the same compound, the NEL (rat [5]; [15]) was 23.1 mg/kg/day, the NOAEL (rat [5]; [15]) was 23.1 mg/kg/day and the LEL (rat [5]; [16]) was 1.9 mg/kg/day. The NEL (rat [5]; [16]) was < 1.9 mg/kg/day, the LOAEL (rat [5]; group: parental, systemic / in life observation / body weight / body weight + systemic / in life observation / body weight / body weight gain) was 294 mg/kg/day and the NOAEL (rat [5]; group: parental, systemic / in life observation / body weight / body weight + systemic / in life observation / body weight / body weight gain + systemic / in…) was 23.1 mg/kg/day. For the same compound, the LEL (mouse [6]; [17]) was 2 mg/kg/day, the NEL (mouse [6]; [17]) was < 2 mg/kg/day and the LOAEL (mouse [6]; [18]) was > 211 mg/kg/day. The NOAEL (mouse [6]; [18]) was ≥ 211 mg/kg/day, the LEL (dog [7]) was 800 mg/kg/day and the LOAEL (dog [7]) was 800 mg/kg/day. For the same compound, the NEL (dog [7]) was 80 mg/kg/day, the NOAEL (dog [7]) was 80 mg/kg/day and the LEL (rat [8]; systemic / clinical chemistry / gamma glutamyl transferase (ggt) / gamma glutamyl transferase (ggt) + systemic / organ weight / liver / …) was 17 mg/kg/day. For the same compound, the LOAEL (rat [8]; [19]) was 221 mg/kg/day, the NEL (rat [8]; [19]) was 1.3 mg/kg/day and the NOAEL (rat [8]; [19]) was 17 mg/kg/day.
